# Source: ChEMBL document CHEMBL5230081, “Battle against Vancomycin-Resistant Bacteria: Recent Developments in Chemical Strategies” (J Med Chem, 2019)
# Where a SMILES comes first, the peptide text is derived from it. [ ]: non-standard residue; d: D form. ξ: configuration not given here. ξW = NC(Cc1c[nH]c2ccccc12)C(=O)O
# How the values were obtained:
# [1] = Binding affinity to D-Ala-D-Lac
# [2] = Binding affinity to D-Ala-D-Ala
# [3] = test system: Staphylococcus aureus; assay: Antibacterial activity against Vancomycin-resistant Staphylococcus aureus assessed as bacterial growth inhibition measured after 48 hrs by microbroth dilution method; format: functional
# [4] = test system: Staphylococcus aureus; assay: Antibacterial activity against Vancomycin-intermediate Staphylococcus aureus assessed as bacterial growth inhibition measured after 24 hrs by microbroth dilution method; format: functional
# [5] = test system: Staphylococcus aureus; assay: Antibacterial activity against Vancomycin-intermediate Staphylococcus aureus NRS1 assessed as bacterial growth inhibition; format: functional
# [6] = test system: Enterococcus faecium; assay: Antimicrobial activity against Vancomycin-resistant (Van A) Enterococcus faecium ATCC 51559 assessed as reduction in microbial growth; format: functional
# [7] = test system: Staphylococcus aureus; assay: Antibacterial activity against Vancomycin-intermediate Staphylococcus aureus 3797 assessed as inhibition in bacterial growth; format: functional
# [8] = test system: Enterococcus faecalis; assay: Antimicrobial activity against Vancomycin - resistant Enterococcus faecalis assessed as inhibition of bacterial growth; format: functional
# [9] = test system: Enterococcus faecalis; assay: Antimicrobial activity against Vancomycin-sensitive Enterococcus faecalis ATCC 29212 assessed as reduction in microbial growth; format: functional
# [10] = test system: Enterococcus faecium; assay: Antimicrobial activity against Vancomycin-resistant Enterococcus faecium assessed as reduction in microbial growth; format: functional
# [11] = test system: Pseudomonas aeruginosa; assay: Synergistic antibacterial activity against multidrug-resistant Pseudomonas aeruginosa ATCC 27853 assessed as reduction in bacterial viability after 12 hrs in presence of 1/2 MIC of vancomycin; format: functional
# [12] = test system: Pseudomonas aeruginosa; assay: Antibacterial activity against Pseudomonas aeruginosa ATCC 27853 assessed as bacterial growth inhibition measured after 24 hrs by microbroth dilution method; format: functional
# [13] = test system: Enterococcus faecium; assay: Antimicrobial activity against Vancomycin-resistant (Van M) Enterococcus faecium ATCC 51559 assessed as reduction in microbial growth; format: functional
# [14] = test system: Staphylococcus aureus; assay: Antibacterial activity against Vancomycin-intermediate Staphylococcus aureus Mu50 assessed as bacterial growth inhibition; format: functional
# [15] = test system: Enterobacter cloacae; assay: Antibacterial activity against Enterobacter cloacae NDM-1 assessed as reduction in bacterial growth by broth microdilution method; format: functional
# [16] = test system: Staphylococcus aureus; assay: Antimicrobial activity against Vancomycin-resistant Staphylococcus aureus incubated for 20 hrs by broth dilution method; format: functional
# [17] = test system: Acinetobacter baumannii; assay: Antibacterial activity against Acinetobacter baumannii R4942 assessed as reduction in bacterial growth by broth microdilution method; format: functional
# [18] = test system: Pseudomonas aeruginosa; assay: Antibacterial activity against extensively drug resitant Pseudomonas aeruginosa; format: functional, organism-based
# [19] = Enterococcus faecium, ATCC 51559, read-out: MIC
# [20] = Enterococcus faecium, read-out: MIC
compound,measurement,setting,value
CN[C@H](CC(C)C)C(=O)N[C@H]1C(=O)N[C@@H](CC(N)=O)C(=O)N[C@H]2CN[C@H]3C(=O)N[C@H](C(=O)N[C@H](C(=O)O)c4cc(O)cc(O)c4-c4cc3ccc4O)[C@H](O)c3ccc(c(Cl)c3)Oc3cc2cc(c3O)Oc2ccc(cc2Cl)[C@H]1O,Ka,[1],5.2 10^3/M
same,Ka,[2],4.8 10^3/M
H-IRIKIRIK-OH,MIC,[3],8 µg/mL
same,MIC,[4],8 µg/mL
CCCCCCCCCCC(=O)N[C@@H](CCCCN)C(=O)N[C@@H](CCCCN)C(=O)NC(CCCCNC(=O)[C@H]1NC(=O)[C@H]2NC(=O)[C@H](NC(=O)[C@@H]3NC(=O)[C@H](CC(N)=O)NC(=O)[C@H](NC(=O)[C@@H](CC(C)C)NC)[C@H](O)c4ccc(c(Cl)c4)Oc4cc3cc(c4O[C@@H]3O[C@H](CO)[C@@H](O)[C@H](O)[C@H]3O[C@H]3C[C@](C)(N)[C@H](O)[C@H](C)O3)Oc3ccc(cc3Cl)[C@H]2O)c2ccc(O)c(c2)-c2c(O)cc(O)cc21)C(N)=O (some centres not stated),MIC,[5],0.03 µg/mL
same,MIC,[6]; [19],2 µg/mL
same,MIC,[7],0.06 µg/mL
CCCCCCCCCCN[C@@]1(C)C[C@H](O[C@H]2[C@H](Oc3c4cc5cc3Oc3ccc(cc3Cl)[C@@H](O)[C@@H](NC(=O)[C@@H](CC(C)C)NC)C(=O)N[C@@H](CC(N)=O)C(=O)N[C@H]5C(=O)N[C@H]3C(=O)N[C@H](C(=O)N[C@H](C(=O)ONCCCNC(=O)[C@H](O)[C@@H](O)[C@H](O[C@@H]5O[C@H](CO)[C@H](O)[C@H](O)[C@H]5O)[C@H](O)CO)c5cc(O)cc(O)c5-c5cc3ccc5O)[C@H](O)c3ccc(c(Cl)c3)O4)O[C@H](CO)[C@@H](O)[C@@H]2O)O[C@@H](C)[C@H]1O,MIC,[6],1 µM
same,MIC,[6]; [19],0.7 µM
same,MIC,[8],0.7 µM
same,Ka,[1],6 10^4/M
CCCCCCCC[n+]1ccc(CN[C@@]2(C)C[C@H](O[C@H]3[C@H](Oc4c5cc6cc4Oc4ccc(cc4Cl)[C@@H](O)[C@@H](NC(=O)[C@@H](CC(C)C)NC)C(=O)N[C@@H](CC(N)=O)C(=O)N[C@H]6C(=O)N[C@H]4C(=O)N[C@H](C(=O)N[C@H](C(=O)NC(=O)[C@H](O)[C@@H](O)[C@H](O[C@@H]6O[C@H](CO)[C@@H](O)[C@H](O)[C@H]6O)[C@H](O)CO)c6cc(O)cc(O)c6-c6cc4ccc6O)[C@H](O)c4ccc(c(Cl)c4)O5)O[C@H](CO)[C@@H](O)[C@@H]3O)O[C@@H](C)[C@H]2O)cc1,MIC,[5],0.1 µM
same,MIC,[6]; [19],0.09 µM
same,MIC,[9],0.1 µM
same,Ka,[1],5.7 10^4/M
same,MIC,[10]; [20],0.09 µM
CN[C@H](CC(C)C)C(=O)N[C@H]1C(=O)N[C@@H](CC(N)=O)C(=O)N[C@H]2C(=S)N[C@H]3C(=O)N[C@H](C(=O)N[C@H](C(=O)O)c4cc(O)cc(O)c4-c4cc3ccc4O)[C@H](O)c3ccc(c(Cl)c3)Oc3cc2cc(c3O)Oc2ccc(cc2Cl)[C@H]1O,Ka,[1],1.1 10^1/M
same,Ka,[2],1.7 10^2/M
CN[C@H](CC(C)C)C(=O)N[C@H]1C(=O)N[C@@H](CC(N)=O)C(=O)N[C@H]2C(=O)N[C@H]3C(=O)N[C@H](C(=O)N[C@H](C(=O)NC[C@H]4OB(O)c5ccccc54)c4cc(O)cc(O)c4-c4cc3ccc4O)[C@H](O)c3ccc(c(Cl)c3)Oc3cc2cc(c3O[C@@H]2O[C@H](CO)[C@@H](O)[C@H](O)[C@H]2O[C@H]2C[C@](C)(N)[C@H](O)[C@H](C)O2)Oc2ccc(cc2Cl)[C@H]1O,MIC,[7],1 µM
CCCCCCCCN(CCCNC(=O)[C@H]1NC(=O)[C@H]2NC(=O)[C@H](NC(=O)[C@@H]3NC(=O)[C@H](CC(N)=O)NC(=O)[C@H](NC(=O)[C@@H](CC(C)C)NC)[C@H](O)c4ccc(c(Cl)c4)Oc4cc3cc(c4O)Oc3ccc(cc3Cl)[C@H]2O)c2ccc(O)c(c2)-c2c(O)cc(O)cc21)CCCNC(=O)[C@H]1NC(=O)[C@H]2NC(=O)[C@H](NC(=O)[C@@H]3NC(=O)[C@H](CC(N)=O)NC(=O)[C@H](NC(=O)[C@@H](CC(C)C)NC)[C@H](O)c4ccc(c(Cl)c4)Oc4cc3cc(c4O)Oc3ccc(cc3Cl)[C@H]2O)c2ccc(O)c(c2)-c2c(O)cc(O)cc21,MIC,[6]; [19],2.5 µM
same,Ka,[1],5.7 10^3/M
same,MIC,[7],0.6 µM
same,Ka,[2],1 10^5/M
N=C(N)NCCC[C@H](NC(=O)[C@H](CCCNC(=N)N)NC(=O)[C@H](Cc1c[nH]c2ccccc12)NC(=O)[C@H](Cc1c[nH]c2ccccc12)NC(=O)[C@H](CCCNC(=N)N)NC(=O)[C@H](CCCNC(=N)N)NC(=O)[C@H](Cc1c[nH]c2ccccc12)NC(=O)C(Cc1c[nH]c2ccccc12)NC(=O)[C@H](CCCNC(=N)N)NC(=O)[C@H](Cc1c[nH]c2ccccc12)NC(=O)[C@H](Cc1c[nH]c2ccccc12)NC(=O)[C@@H](N)CCCNC(=N)N)C(=O)O (some centres not stated) (H-RWWR[ξW]WRRWWRR-OH),MIC,[3],1 µg/mL
same,MIC,[4],4 µg/mL
CC(=O)N[C@@H]1[C@H](Oc2c3cc4cc2Oc2ccc(cc2Cl)[C@@H](O[C@@H]2O[C@@H](CO)[C@@H](O)[C@H](O)[C@@H]2NC(C)=O)[C@@H]2NC(=O)[C@H](NC(=O)[C@@H]4NC(=O)[C@H]4NC(=O)[C@@H](Cc5ccc(c(Cl)c5)O3)NC(=O)[C@H](N)c3ccc(O)c(c3)Oc3cc(O)cc4c3)c3ccc(O)c(c3)-c3c(O[C@H]4O[C@H](CO)[C@@H](O)[C@@H](O)[C@@H]4O)cc(O)cc3[C@@H](C(=O)O)NC2=O)O[C@@H](CO)[C@@H](O)[C@@H]1O,fractional inhibitory concentration index (FICI),[11],<0.5
same,MIC,[12],256 µg/mL
CN[C@H](CC(C)C)C(=O)N[C@H]1C(=O)N[C@@H](CC(N)=O)C(=O)N[C@H]2C(=O)N[C@H]3C(=O)N[C@H](C(=O)N[C@H](C(=O)O)c4cc(O)c(CNCCO[C@@H]5O[C@H](CO)[C@H](O)[C@H](O)[C@H]5O)c(O)c4-c4cc3ccc4O)[C@H](O)c3ccc(c(Cl)c3)Oc3cc2cc(c3O[C@@H]2O[C@H](CO)[C@@H](O)[C@H](O)[C@H]2O[C@H]2C[C@](C)(NCc3ccc(-c4ccc(C(F)(F)F)cc4)cc3)[C@H](O)[C@H](C)O2)Oc2ccc(cc2Cl)[C@H]1O,MIC,[6],≤ 0.06 µg/mL
same,MIC,[6]; [19],1 µg/mL
same,MIC,[13],2 µg/mL
same,MIC,[14],0.25 µg/mL
CN[C@H](CC(C)C)C(=O)N[C@H]1C(=O)N[C@@H](CC(N)=O)C(=O)N[C@H]2C(=N)N[C@H]3C(=O)N[C@H](C(=O)N[C@H](C(=O)O)c4cc(O)cc(O)c4-c4cc3ccc4O)[C@H](O)c3ccc(c(Cl)c3)Oc3cc2cc(c3O)Oc2ccc(cc2Cl)[C@H]1O,Ka,[1],6.9 10^4/M
same,Ka,[2],7.3 10^4/M
CN[C@H](CC(C)C)C(=O)N[C@H]1C(=O)N[C@@H](CC(N)=O)C(=O)N[C@H]2C(=O)N[C@H]3C(=O)N[C@H](C(=O)N[C@H](C(=O)O)c4cc(O)c(CN[C@H]5C(O)O[C@H](CO)[C@H](O)[C@@H]5O)c(O)c4-c4cc3ccc4O)[C@H](O)c3ccc(c(Cl)c3)Oc3cc2cc(c3O[C@@H]2O[C@H](CO)[C@@H](O)[C@H](O)[C@H]2O[C@H]2C[C@](C)(NCc3ccc(-c4ccc(Cl)cc4)cc3)[C@H](O)[C@H](C)O2)Oc2ccc(cc2Cl)[C@H]1O (some centres not stated),MIC,[6],0.25 µg/mL
same,MIC,[6]; [19],2 µg/mL
same,MIC,[13],4 µg/mL
same,MIC,[14],0.12 µg/mL
CN[C@H](CC(C)C)C(=O)N[C@H]1C(=O)N[C@@H](CC(N)=O)C(=O)N[C@H]2C(=O)N[C@H]3C(=O)N[C@H](C(=O)N[C@H](C(=O)O)c4cc(O)cc(O)c4-c4cc3ccc4O)[C@H](O)c3ccc(c(Cl)c3)Oc3cc2cc(c3O[C@@H]2O[C@H](CO)[C@@H](O)[C@H](O)[C@H]2O[C@H]2C[C@](C)(NCc3cccc(OCCSSCCOc4cccc(CN[C@@]5(C)C[C@H](O[C@H]6[C@H](Oc7c8cc9cc7Oc7ccc(cc7Cl)[C@@H](O)[C@@H](NC(=O)[C@@H](CC(C)C)NC)C(=O)N[C@@H](CC(N)=O)C(=O)N[C@H]9C(=O)N[C@H]7C(=O)N[C@H](C(=O)N[C@H](C(=O)O)c9cc(O)cc(O)c9-c9cc7ccc9O)[C@H](O)c7ccc(c(Cl)c7)O8)O[C@H](CO)[C@@H](O)[C@@H]6O)O[C@@H](C)[C@H]5O)c4)c3)[C@H](O)[C@H](C)O2)Oc2ccc(cc2Cl)[C@H]1O,MIC,[5],8 µg/mL
same,MIC,[10]; [20],1 µg/mL
CN[C@H](CC(C)C)C(=O)N[C@H]1C(=O)N[C@@H](CC(N)=O)C(=O)N[C@H]2C(=O)N[C@H]3C(=O)N[C@H](C(=O)N[C@H](C(=O)NCCC[N+](C)(C)C)c4cc(O)cc(O)c4-c4cc3ccc4O)[C@H](O)c3ccc(c(Cl)c3)Oc3cc2cc(c3O[C@@H]2O[C@H](CO)[C@@H](O)[C@H](O)[C@H]2O[C@H]2C[C@](C)(NCc3ccc(-c4ccc(Cl)cc4)cc3)[C@H](O)[C@H](C)O2)Oc2ccc(cc2Cl)[C@H]1O,MIC,[6]; [19],0.01 µg/mL
same,MIC,[10],0.01 µg/mL
CCCCCCCC[N+](C)(C)CCCNC(=O)[C@H]1NC(=O)[C@H]2NC(=O)[C@H](NC(=O)[C@@H]3NC(=O)[C@H](CC(N)=O)NC(=O)[C@H](NC(=O)[C@@H](CC(C)C)NC)[C@H](O)c4ccc(c(Cl)c4)Oc4cc3cc(c4O[C@@H]3O[C@H](CO)[C@@H](O)[C@H](O)[C@H]3O[C@H]3C[C@](C)(N)[C@H](O)[C@H](C)O3)Oc3ccc(cc3Cl)[C@H]2O)c2ccc(O)c(c2)-c2c(O)cc(O)cc21,MIC,[5],0.4 µM
same,MIC,[6]; [19],12 µM
same,MIC,[15],> 100 µM
same,MIC,[16],0.3 µM
same,MIC,[17],7 µM
POLYMYXIN B,MIC,[18],2 µg/mL
